Assay results: patent US12049439B2 (OrsoBio, Inc., priority 2018, dated 2024)

test system: PC-3 cells; assay: PC-3 Oxygen Rate Consumption (OCR) Assay; format: cell-based; settings: Homo sapiens, 0.05 h, medium with 2% FBS, OCR at 3-min post-injection normalized to % increase over DMSO-treated cells, concentration for half-maximal OCR increase, read-out: EC50-PC3-OCR-FBS-3min
In short: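 Oxygen consumption read on Seahorse XFe96: three basal measurements, then compound injection and 10 cycles over 30 min. EC50 defined as concentration giving half-maximal OCR rise, using 3-min post-injection values as % above DMSO controls, six replicates per treatment, in PC-3 cells in glucose/pyruvate medium.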

Point of comparison: `CS(=O)(=O)Nc1cc(F)c(F)cc1C(=O)NC12CCC(C#N)(CC1)CC2` [Example 215, N-(4-cyanobicyclo[2.2.2]octan-1-yl)-4,5-difluoro-2-(methylsulfonamido)benzamide], EC50 21.4 µM. Against it:
- CC(C)S(=O)(=O)Nc1cc(C(F)(F)F)ccc1C(=O)NC12CC(C#N)(C1)C2 [Example 60, N-(3-cyanobicyclo[1.1.1]pentan-1-yl)-2-((1-methylethyl)sulfonamido)-4-(trifluoromethyl)benzamide] — 3.4-fold lower, 6.22 µM
- N#CC12CCC(NC(=O)c3cc(C(F)(F)F)ccc3NS(=O)(=O)N3CCC3)(CC1)CC2 [Example 179, 2-(azetidine-1-sulfonamido)-N-(4-cyanobicyclo[2.2.2]octan-1-yl)-5-(trifluoromethyl)benzamide] — 2.4-fold lower, 8.84 µM
- O=C(NC12CC(c3ccccc3)(C1)C2)c1ccc(C(F)(F)F)cc1NS(=O)(=O)c1ccc(-n2cnnn2)cc1 [Example 43, 2-((4-(1H-tetrazol-1-yl)phenyl)sulfonamido)-N-(3-phenylbicyclo[1.1.1]pentan-1-yl)-4-(trifluoromethyl)benzamide] — 7.2-fold lower, 2.99 µM
- O=C(NC12CC(C(F)(F)F)(C1)C2)c1ccc(C(F)(F)F)cc1NS(=O)(=O)c1ccc(S(=O)(=O)C(F)(F)F)cc1 [Example 33, 4-(trifluoromethyl)-N-(3-(trifluoromethyl)bicyclo[1.1.1]pentan-1-yl)-2-((4-((trifluoromethyl)sulfonyl)phenyl)sulfonamido)benzamide] — 11-fold lower, 1.93 µM
- N#CC12CC(NC(=O)c3ccc(C(F)(F)F)cc3NS(=O)(=O)c3ccc4ccccc4c3)(C1)C2 [Example 35, N-(3-cyanobicyclo[1.1.1]pentan-1-yl)-2-(naphthalene-2-sulfonamido)-4-(trifluoromethyl)benzamide] — 18-fold lower, 1.21 µM
- COC12CC(NC(=O)c3cc(C(F)(F)F)ccc3NS(=O)(=O)C(C)(C)C)(C1)C2 [Example 169, 2-((1,1-dimethylethyl)sulfonamido)-N-(3-methoxybicyclo[1.1.1]pentan-1-yl)-5-(trifluoromethyl)benzamide] — 1.9-fold lower, 11.4 µM
- O=C(NC12CCC(C(F)(F)F)(CC1)CC2)c1ccc(Cl)cc1NS(=O)(=O)C1CCS(=O)(=O)CC1 [Example 241, 4-chloro-2-((1,1-dioxidotetrahydro-2H-thiopyran)-4-sulfonamido)-N-(4-(trifluoromethyl)bicyclo[2.2.2]octan-1-yl)benzamide] — 3.4-fold lower, 6.38 µM
- CC(C)(C)S(=O)(=O)Nc1ccc(Br)cc1C(=O)NC12CC(C(F)(F)F)(C1)C2 [Example 95, 5-bromo-2-((1,1-dimethylethyl)sulfonamido)-N-(3-(trifluoromethyl)bicyclo[1.1.1]pentan-1-yl)benzamide] — 19-fold lower, 1.12 µM
- CS(=O)(=O)Nc1cc(F)ccc1C(=O)NC12CCC(C#N)(CC1)CC2 [Example 198, N-(4-cyanobicyclo[2.2.2]octan-1-yl)-4-fluoro-2-(methylsulfonamido)benzamide] — higher, ≥ 200 µM
- CC(C)S(=O)(=O)Nc1cc(C(F)(F)F)ccc1C(=O)NC12CC(C(F)(F)F)(C1)C2 [Example 56, 2-((1-methylethyl)sulfonamido)-4-(trifluoromethyl)-N-(3-(trifluoromethyl)bicyclo[1.1.1]pentan-1-yl)benzamide] — 26-fold lower, 0.825 µM
- CS(=O)(=O)c1ccc(S(=O)(=O)Nc2ccc(Cl)cc2C(=O)NC23CC(c4ccccc4)(C2)C3)cc1 [Example 91, 5-chloro-2-((4-(methylsulfonyl)phenyl)sulfonamido)-N-(3-phenylbicyclo[1.1.1]pentan-1-yl)benzamide] — 7.2-fold lower, 2.97 µM
- O=C(NC12CC(C(F)(F)F)(C1)C2)c1ccccc1NS(=O)(=O)c1ccc(Cl)cc1Cl [Example 141, 2-((2,4-dichlorophenyl)sulfonamido)-N-(3-(trifluoromethyl)bicyclo[1.1.1]pentan-1-yl)benzamide] — 18-fold lower, 1.18 µM
- N#CC12CCC(NC(=O)c3cc(C(F)(F)F)ccc3NS(=O)(=O)C3CCOCC3)(CC1)CC2 [Example 204, N-(4-cyanobicyclo[2.2.2]octan-1-yl)-2-((tetrahydro-2H-pyran)-4-sulfonamido)-5-(trifluoromethyl)benzamide] — within 1.5-fold, 15.7 µM
- CS(=O)(=O)Nc1cc(F)ccc1C(=O)NC12CC(Cl)(C1)C2 [Example 79, N-(3-chlorobicyclo[1.1.1]pentan-1-yl)-4-fluoro-2-(methylsulfonamido)benzamide] — within 1.5-fold, 21.2 µM
- N#CC12CCC(NC(=O)c3cc(C(F)(F)F)ccc3NS(=O)(=O)C3COC3)(CC1)CC2 [Example 75, N-(4-cyanobicyclo[2.2.2]octan-1-yl)-2-(oxetane-3-sulfonamido)-5-(trifluoromethyl)benzamide] — within 1.5-fold, 25.9 µM
- N#CC12CCC(NC(=O)c3cc(F)ccc3NS(=O)(=O)CCC(F)(F)F)(CC1)C2 [Example 222, N-(4-cyanobicyclo[2.2.1]heptan-1-yl)-5-fluoro-2-((3,3,3-trifluoropropyl)sulfonamido)benzamide] — 3.8-fold lower, 5.7 µM
- CC(C)(C)S(=O)(=O)Nc1ccc(-c2ncccn2)cc1C(=O)NC12CC(C(F)(F)F)(C1)C2 [Example 100, 2-((1,1-dimethylethyl)sulfonamido)-5-(pyrimidin-2-yl)-N-(3-(trifluoromethyl)bicyclo[1.1.1]pentan-1-yl)benzamide] — 1.5-fold lower, 14.2 µM
- O=C(NC12CC(Cl)(C1)C2)c1cc(C(F)(F)F)ccc1NS(=O)(=O)C1COC1 [Example 74, N-(3-chlorobicyclo[1.1.1]pentan-1-yl)-2-(oxetane-3-sulfonamido)-5-(trifluoromethyl)benzamide] — 3.5-fold lower, 6.17 µM
- CS(=O)(=O)Nc1ccc(C(F)(F)F)cc1C(=O)NC12CCC(C(F)F)(CC1)CC2 [Example 81, N-(4-(difluoromethyl)bicyclo[2.2.2]octan-1-yl)-2-(methylsulfonamido)-5-(trifluoromethyl)benzamide] — 9-fold lower, 2.39 µM
- CS(=O)(=O)c1ccc(S(=O)(=O)Nc2ccc(Cl)cc2C(=O)NC23CC(C(F)(F)F)(C2)C3)cc1 [Example 90, 5-chloro-2-((4-(methylsulfonyl)phenyl)sulfonamido)-N-(3-(trifluoromethyl)bicyclo[1.1.1]pentan-1-yl)benzamide] — 8-fold lower, 2.67 µM
- O=C(NC12CCC(C(F)(F)F)(CC1)CC2)c1ccc(OC(F)(F)F)cc1NS(=O)(=O)C1CCS(=O)(=O)CC1 [Example 240, 2-((1,1-dioxidotetrahydro-2H-thiopyran)-4-sulfonamido)-4-(trifluoromethoxy)-N-(4-(trifluoromethyl)bicyclo[2.2.2]octan-1-yl)benzamide] — 7.1-fold lower, 3.01 µM
- CCCCS(=O)(=O)Nc1ccc(C#N)cc1C(=O)NC12CCC(C#N)(CC1)CC2 [Example 129, 2-(butylsulfonamido)-5-cyano-N-(4-cyanobicyclo[2.2.2]octan-1-yl)benzamide] — within 1.5-fold, 24.3 µM
- O=C(NC12CC(C(F)(F)F)(C1)C2)c1cc(C(F)(F)F)ccc1NS(=O)(=O)N1CCS(=O)(=O)CC1 [Example 193, 2-((1,1-dioxidothiomorpholine)-4-sulfonamido)-5-(trifluoromethyl)-N-(3-(trifluoromethyl)bicyclo[1.1.1]pentan-1-yl)benzamide] — 2.2-fold lower, 9.95 µM
- CS(=O)(=O)c1ccc(S(=O)(=O)Nc2cc(F)ccc2C(=O)NC23CC(C(F)(F)F)(C2)C3)cc1 [Example 5, 4-fluoro-2-((4-(methylsulfonyl)phenyl)sulfonamido)-N-(3-(trifluoromethyl)bicyclo[1.1.1]pentan-1-yl)benzamide] — 3.7-fold lower, 5.8 µM
